Assays:
LTB4 receptor = experiment: TXB2 release from guinea pig eosinophils stimulated with LTB4 (LTB4 receptor antagonist activity); format: cell-based; conditions: 10^−3 M test compound (37.5 μl) added to 300 μl cell suspension, then 10^−7 M LTB4 (37.5 μl), 37° C. 15 min, positive control 100, negative control 0, N.D. = TXB2 concentration at measurement limit or less
Procedure: The LTB4 receptor antagonist activity of the test compound was examined using, as an index, thromboxane B2 (TXB2) released when stimulating eosinophil of guinea pig with LTB4.
Based on the method described in Japanese Journal of Pharmacology, vol. 70, p. 337-345 (1996) etc., eosinophils of guinea pig were prepared. A cell suspension (300 μl, 1.25×10^6 cells/ml) was placed in a 5 ml polypropylene test tube and, after incubation at 37° C. for 5 min., 10^−3 M test compound (37.5 μl) dissolved in 0.1% DMSO aqueous solution was added and the cells were continuously cultured for 5 min. Then, 10^−7 M LTB4 (37.5 μl) was added to induce the reaction and the cells were incubated at 37° C. for 15 min. The reaction was quenched in ice water, and the culture was centrifuged at 4° C., 3000 rpm for 10 min. The obtained supernatant was prepared as a sample for TXB2 measurement, and preserved at −80° C. before use for the measurement. The quantitation of TXB2 was performed using a TXB2 enzyme immunoassay kit (manufactured by Cayman Chemical Company). The release ratio (%) of TXB2 from the eosinophils was determined by the following formula: release ratio (%) of TXB2=[(average value of test compound administration group−average value of negative control group)/(average value of positive control group−average value of negative control group)]×100
As used herein, the positive control group means a group to which stimulation with LTB4 was applied but the same volume of a medium was given instead of the test compound, and the negative control group means a group to which stimulation with LTB4 was not applied, the same volume of a medium was given instead of LTB4, and the same volume of a medium was given instead of the test compound. When the release ratio of TXB2 is smaller than 0, it means that the measured TXB2 concentration was lower than that of the negative control group. When the TXB2 concentration in the sample was the measurement limit or less, N.D. is indicated.

melting point [°C] | Structure (SMILES) | Amount of TXB2 release (%) (LTB4 receptor)
 | CC(=O)c1oc2ccc(/C(C)=C/C(=O)N3CCN(c4ccccc4)CC3)cc2c1N [Example 18, (E)-3-(2-acetyl-3-aminobenzofuran-5-yl)-1-(4-phenylpiperazin-1-yl)-2-buten-1-one] | 53.91
132.2 to 139.7 | CC(NC(=O)/C=C/c1ccccc1)c1cc2cccc(OCCCCl)c2o1 (centres unmarked) [Example 131, (E)-N-{1-[7-(3-chloropropoxy)benzofuran-2-yl]ethyl}-3-phenylacrylamide] | 2.14
180.2 to 181.1 | CC(=O)c1oc2ccc(Br)cc2c1NC(=O)/C=C/c1ccccc1 [Example 114, (E)-N-(2-acetyl-5-bromobenzofuran-3-yl)-3-phenylacrylamide] | 51.42
 | CC(=CC(=O)N1CCOCC1)c1cc2cccc(OC(c3ccccc3)c3ccccc3)c2o1 (stereo in doubt) [Example 42, (E)-3-(7-benzhydryloxybenzofuran-2-yl)-1-morpholino-2-buten-1-one] | 13.83
 | COc1ccc(CCNC(=O)/C=C(\C)c2ccc(OC(C)c3ccccc3)c3oc(C(C)=O)cc23)cc1OC (stereo not drawn) [Example 8, (E)-3-[2-acetyl-7-(l-phenylethoxy)benzofuran-4-yl]-N-[2-(3,4-dimethoxyphenyl)ethyl]-2-butenamide] | 41.73
199.5 to 201.9 | CCN(CC)C(=O)/C=C(\C)c1ccc(OCCCC(=O)O)c2oc(/C(C)=C/C(=O)O)cc12 [Example 2, (E)-3-[7-(3-carboxypropoxy)-4-(2-diethylcarbamoyl-1-methylvinyl)benzofuran-2-yl]-2-butenoic acid] | 5.77
 | CCOC(=O)CCCOc1ccc(/C(C)=C/C(=O)N(CC)CC)c2cc(C(C)=O)oc12 [Example 14, Ethyl (E)-4-[2-acetyl-4-(2-diethylcarbamoyl-1-methylvinyl)benzofuran-7-yloxy]butyrate] | 44.81
151.4 to 153.3 | COc1ccc(CCNC(=O)/C=C/C=C(\Cl)c2cc3cccc(OC)c3o2)cc1OC [Example 56, (2E,4Z)-5-chloro-5-(7-methoxybenzofuran-2-yl)-penta-2,4-dienoic acid [2-(3,4-dimethoxyphenyl)ethyl]amide] | 52.39
206.5 to 208.2 | C/C=C/C(=O)Nc1c(C#N)oc2ccc(Br)cc12 [Example 117, (E)-N-(5-bromo-2-cyanobenzofuran-3-yl)-2-butenamide] | 54.95
162.4 to 163.8 | CCOC(=O)c1oc2ccccc2c1NC(=O)/C=C/c1ccccc1 [Example 119, Ethyl (E)-3-(3-phenylacryloylamino)benzofurane-2-carboxylate] | 9.8
 | CCN(CC)C(=O)/C=C(\C)c1cc2cccc(OC(c3ccccc3)c3ccccc3)c2o1 [Example 37, (E)-3-(7-benzhydryloxybenzofuran-2-yl)-N,N-diethyl-2-butenamide] | 15.69
 | CCOC(=O)CCCOc1ccc(Br)c2cc(/C(C)=C/C(=O)N(CC)CC)oc12 [Example 35] | 1.02
189 to 193 | CCOC(=O)c1ccc(OC)c(NC(=O)/C=C(\C)c2ccc3oc(C(C)=O)c(N)c3c2)c1 [Example 16, Ethyl (E)-3-[3-(2-acetyl-3-aminobenzofuran-5-yl)-2-butenoylamino]-4-methoxybenzoate] | 56.57
 | COc1ccc(CCNC(=O)/C=C(\C)c2ccc3oc(C(C)=O)c(NC(=O)c4cnoc4C)c3c2)cc1OC [Example 72, (E)-N-(2-acetyl-5-(2-[2-(3,4-dimethoxyphenyl)ethylcarbamoyl]-1-methylvinyl)benzofuran-3-yl)-5-methylisoxazole-4-carboxamide] | 84.46
 | CCN(CC)C(=O)/C=C(/C)c1cc2cccc(OC(C)C)c2o1 [Example 34, (Z)-3-(7-isopropoxybenzofuran-2-yl)-N,N-diethyl-2-butenamide] | −0.063
 | CCNS(=O)(=O)c1ccc(OCCCC(=O)OCC)c2oc(/C(C)=C\C(=O)N(CC)CC)cc12 [Example 48, Ethyl (Z)-4-[2-(2-diethylcarbamoyl-1-methylvinyl)-4-ethylsulfamoylbenzofuran-7-yloxy]butyrate] | 53.91
127.8 to 130 | C/C=C/C(=O)Nc1c(C(C)=O)oc2ccc(Br)cc12 [Example 123, (E)-N-(2-acetyl-5-bromobenzofuran-3-yl)-2-butenamide] | 
168.9 to 170 | COc1ccc(NC(=O)/C=C(\C)c2oc3c(Cl)cccc3c2-c2ccc(Cl)cc2)cc1 [Example 143, (E)-3-[7-chloro-3-(4-chlorophenyl)benzofuran-2-yl]-2-butenoic acid (4-methoxyphenyl)-amide] | 
206 to 208 | CC(=O)c1oc2ccc(Br)cc2c1NC(=O)c1cnoc1C [Example 65, N-(2-acetyl-5-bromobenzofuran-3-yl)-5-methylisoxazole-4-carboxamide] | 
112.7 to 114.3 | COc1ccc(CCNC(=O)/C=C(\C)c2ccc3oc(C(C)=O)cc3c2)cc1OC [Example 26, (E)-3-(2-acetylbenzofuran-5-yl)-N-[2-(3,4-dimethoxyphenyl)ethyl]-2-butenamide] | 
165.8 to 167.2 | C/C(O)=C(\C#N)C(=O)Nc1c(C#N)oc2ccccc12 [Example 105, (Z)-N-(2-cyanobenzofuran-3-yl)-2-cyano-3-hydroxy-2-butenamide] | 
170 to 172.8 | CCOC(=O)c1oc2ccc(Br)cc2c1NC(=O)c1cnoc1C [Example 67, Ethyl 5-bromo-3-[(5-methylisoxazole-4-carbonyl)amino]benzofurane-2-carboxylate] | 
206.9 to 208.6 | CC(=O)c1oc2ccc(/C(C)=C/C(=O)N3CCOCC3)cc2c1NC(=O)/C(C#N)=C(/C)O [Example 108, N-[2-acetyl-5-(1-methyl-3-morpholino-3-oxo-(E)-1-propenyl)benzofuran-3-yl]-2-cyano-3-hydroxy-(Z)-2-butenamide] | 
203.5 to 205 | COc1ccc2oc(-c3nc(N=CN(C)C)sc3C=O)c(-c3ccc(Cl)cc3)c2c1 [Example 221, N′-{4-[3-(4-chlorophenyl)-5-methoxybenzofuran-2-yl]-5-formylthiazol-2-yl}-N,N-dimethylformamidine] | 
250.7 to 252.6 | Cc1oncc1C(=O)Nc1c(C(N)=O)oc2ccccc12 [Example 79, N-(2-carbamoylbenzofuran-3-yl)-5-methylisoxazole-4-carboxamide] | 
169.9 to 173.2 | C/C(O)=C(/C#N)C(=O)NC(C)c1cc2cccc(OCC(=O)O)c2o1 (centres unmarked) [Example 127, (E)-{2-[1-(2-cyano-3-hydroxy-2-butenoylamino)ethyl]benzofuran-7-yloxy}acetic acid] | 
116.5 to 118.3 | CCOC(=O)C(CSCc1ccccc1)NC(=O)/C=C/C=C(\Cl)c1cc2cccc(OCCCCl)c2o1 (centres unmarked) [Example 63, Ethyl (2E,4Z)-3-benzylsulfanyl-2-{5-chloro-5-[7-(3-chloropropoxy)benzofuran-2-yl]penta-2,4-dienoylamino}propionate] | 
196 to 197.7 | COc1ccc2oc(-c3csc(N)n3)c(-c3ccc(Cl)cc3)c2c1 [Example 218, 4-[3-(4-chlorophenyl)-5-methoxybenzofuran-2-yl]thiazol-2-ylamine] | 
